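Method: 48-hour compound exposure of cells in 96-well plates, five concentrations, linear interpolation of endpoints. TGI is the concentration that stops growth completely.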
Key:
Assay in all cases: NCI anticancer screen, dose series, 48 h
A498 renal = tested on: A498 renal
DLD-1 colon = tested on: DLD-1 colon
DMS 114 small cell lung = tested on: DMS 114 small cell lung
DMS 273 small cell lung = tested on: DMS 273 small cell lung
HOP-18 NSCLC = tested on: HOP-18 NSCLC
KM20L2 colon = tested on: KM20L2 colon
LXFL 529 NSCLC = tested on: LXFL 529 NSCLC
M19-MEL melanoma = tested on: M19-MEL melanoma
NCI-H522 lung = tested on: NCI-H522 lung
OVCAR-4 ovarian = tested on: OVCAR-4 ovarian
SF-268 CNS = tested on: SF-268 CNS
SK-MEL-28 melanoma = tested on: SK-MEL-28 melanoma
SK-OV-3 ovarian = tested on: SK-OV-3 ovarian
SN12C renal = tested on: SN12C renal
SNB-75 CNS = tested on: SNB-75 CNS
U251 CNS = tested on: U251 CNS
XF 498 CNS = tested on: XF 498 CNS

SMILES | TGI (A498 renal) [µM] | TGI (DLD-1 colon) [µM] | TGI (DMS 114 small cell lung) [µM] | TGI (DMS 273 small cell lung) [µM] | TGI (HOP-18 NSCLC) [µM] | TGI (KM20L2 colon) [µM] | TGI (LXFL 529 NSCLC) [µM] | TGI (M19-MEL melanoma) [µM] | TGI (NCI-H522 lung) [µM] | TGI (OVCAR-4 ovarian) [µM] | TGI (SF-268 CNS) [µM] | TGI (SK-MEL-28 melanoma) [µM] | TGI (SK-OV-3 ovarian) [µM] | TGI (SN12C renal) [µM] | TGI (SNB-75 CNS) [µM] | TGI (U251 CNS) [µM] | TGI (XF 498 CNS) [µM]
Clc1ccc(C(c2ccccc2Cl)C(Cl)Cl)cc1 (stereo not drawn) | 38.6 | 38.6 | 36.7 | 36 | 21.6 | 33.8 | 38.2 | 39 | 34.3 | 35.7 | 37.6 | 36.7 | 39.7 | 37 | 35.1 | 36.8 | 37.2
COc1ccc(C(c2c(O)c3ccccc3n(-c3ccccc3)c2=O)c2c(O)c3ccccc3n(-c3ccccc3)c2=O)cc1 | – | > 100 | > 100 | > 100 | > 100 | > 100 | > 100 | > 100 | > 100 | > 100 | > 100 | > 100 | – | > 100 | – | > 100 | > 100
CCN(CC)CCCNc1ccc2nc(C)n3c4ccc(O)cc4c(=O)c1c23 | 24.5 | 16.2 | 21.5 | 13.4 | 25.7 | 17.1 | 19.3 | 23.8 | 14.3 | 20.1 | 17.2 | 26.6 | 25.2 | 18.7 | 7.69 | 21 | 23.3
